{"source": "patent US20210093715A1", "about": "“ANTI-ANGIOGENESIS THERAPY FOR THE TREATMENT OF BREAST CANCER” (Genentech, Inc., priority 2008, published 2021)", "key": {"[1]": {"tested_on": "previously untreated locally recurrent or metastatic HER2-negative breast cancer", "test": "RIBBON1 randomized phase III trial, efficacy (PFS, ORR, OS) of bevacizumab or placebo with chemotherapy", "type": "in vivo, human", "settings": "for % of deaths: overall survival analysis; for ORR (%) / ORR, number of patients with objective response: patients with measurable disease; for median duration of objective response: among responders; for PFS compared to chemotherapies alone (in words): bevacizumab added to capecitabine, taxane or anthracycline-based chemotherapy, 1st-line", "from_the_text": "(§1) The primary objective of the study was to determine the clinical benefit of the addition of bevacizumab to standard chemotherapy regimes for previously untreated metastatic breast cancer, as measured by PFS based on investigator tumor assessment. See, e.g., O'Shaughnessy and Brufsky, (2008), Clinical Breast Cancer, 8(4): 370-373. The trial comprised two study groups that evaluated AVASTIN® with different types of chemotherapies in women who had not previously received chemotherapy for their advanced HER2-negative breast cancer. In the first study group, women received either AVASTIN or placebo in combination with taxane or anthracycline-based chemotherapies. In the second study group, women received either AVASTIN or placebo in combination with capecitabine chemotherapy. The analysis of this example was based on information from 1237 patients. These trials evaluated the efficacy of bevacizumab (AVASTIN®) as therapy for patients previously untreated metastic breast cancer.\n(§2) In the RIBBON1 trial, the following treatment protocol was used:\n(§3) Arm A: bevacizumab 15 mg/kg IV on day 1 of each 21-day cycle and either cohort 1, cohort 2 or cohort 3;\n(§4) Arm B: placebo IV on day 1 of each 21-day cycle and either cohort 1, cohort 2 or cohort 3.\n(§5) Cohort 1: Either of the following taxanes administered every 3 weeks\nPaclitaxel protein-bound particles (Abraxane®) 260 mg/m^2 IV\n(§6) Cohort 2: Any of the following anthracycline-based combination chemotherapies, for subjects previously untreated with anthracyclines, every 3 weeks:\nFEC: 5-fluorouracil 500 mg/m^2 IV, epirubicin 90-100 mg/m^2 IV and cyclophosphamide 500 mg/m^2 IV on Day 1\nFAC: 5-fluorouracil 500 mg/m^2 IV, doxorubicin 50 mg/m^2 IV and cyclophosphamide 500 mg/m^2 IV on Day 1\nAC: Doxorubicin 50-60 mg/m^2 IV and cyclophosphamide 500-600 mg/m^2 IV on Day 1\nEC: Epirubicin 90-100 mg/m^2 IV and cyclophosphamide 500-600 mg/m^2 IV on Day 1\n(§7) Cohort 3: Capecitabine 1000 mg/m^2 oral twice daily on Days 1-14 of each 3-week cycle.\nAll subjects had histologically or cytologically confirmed adenocarcinoma of the breast, subjects may have had either measureable (per the Response Evaluation Criteria in Solid Tumors (RECIST)) or non-measureable locally recurrent or metastatic disease. The locally recurrent disease was not amenable to resection with curative intent.\nThe trial was conducted worldwide (at least 22 countries) and accrued 1237 subjects/patients (Taxane (T): 307; Anthracycline (Anthra): 315; and Capecitabine (Cap): 615).\nThe primary endpoint of the study was progression free survival (PFS), defined as the time from randomization to disease progression or to death, based on investigator assessment. Kaplan-Meier methodology can be used to estimate median PFS for each treatment arm. In certain embodiments, the hazard ratio for PFS will be estimated using a stratified Cox regression model with the same stratification factors used in the stratified log-rank test. Analyses of PFS in each cohort is performed at the two-sided α=0.05 level. Time-to-event data are compared between treatment arms using a stratified log-rank test. The Kaplan-Meier method is used to estimate duration of time-to-event data. The 95% confidence intervals for median time-to-event are computed using the Brookmeyer-Crowley method. The HR for time-to-event data are estimated using a stratified Cox regression model.\n(§8) The secondary endpoints included objective response rate (ORR), one-year survival rate, overall survival (OS), and PFS based on IRC assessment and safety. OS is defined as the time from randomization until death from any cause. ORR is defined as the percentage of patients who achieved a complete or partial response confirmed ≥28 days after initial documentation of response. One-year survival rate is assessed between treatment arms using the normal approximation method. ORR in patients with measurable disease at baseline is compared using the stratified Mantel-Haenszel χ2 test."}, "[2]": {"tested_on": "previously untreated locally recurrent or metastatic HER2-negative breast cancer", "from_the_text": "as §1, §2, §3, §4, §5, §6, §7\nas §8, with “test. Randomization stratification factors are included in all stratified analyses.” for “test.”"}, "metastatic breast cancer [3]": {"tested_on": "metastatic breast cancer", "settings": "weekly paclitaxel + bevacizumab vs paclitaxel alone; cited from earlier work"}, "metastatic breast cancer [4]": {"tested_on": "metastatic breast cancer", "settings": "docetaxel + bevacizumab (7.5 and 15 mg/kg q3w) vs docetaxel alone; cited from earlier work"}, "[5]": {"tested_on": "previously treated metastatic breast cancer", "settings": "capecitabine + bevacizumab vs capecitabine alone; cited from earlier work"}, "[6]": {"settings": "Cap cohort, BV arm = bevacizumab + capecitabine, PL arm = placebo + capecitabine, investigator assessment"}, "[7]": {"settings": "Cap cohort, BV or placebo + capecitabine"}, "[8]": {"settings": "Cap cohort, second PFS figure of b186, assessor not stated (FIG. 2 shows INV and IRC)"}, "[9]": {"settings": "T/Anthra cohort, BV or placebo + taxane/anthracycline"}}, "note": "Like-named read-outs stand apart in the source and are kept apart here.", "data": [{"molecule": "CCCCCOC(=O)Nc1nc(=O)n([C@@H]2O[C@H](C)[C@@H](O)[C@H]2O)cc1F", "note": "[Cap, capecitabine, reference compound]", "values": [{"measurement": "1-yr survival rate (%)", "setting": "[1]; Cap cohort", "value": 74, "unit": "%"}, {"measurement": "PFS Median (months)", "setting": "[1]; [6]", "value": 5.7, "unit": "months"}, {"measurement": "Median OS (months)", "setting": "[1]; [7]", "value": 21.2, "unit": "months"}, {"measurement": "% of deaths", "setting": "[1]; Cap cohort", "value": 35, "unit": "%"}, {"measurement": "ORR (%)", "setting": "[1]; [7]", "value": "(23.6%)"}, {"measurement": "ORR, number of patients with objective response", "setting": "[1]; [7]", "value": 38}, {"measurement": "PFS", "setting": "[1]; [8]", "value": 6.2, "unit": "months"}, {"measurement": "median duration of objective response", "setting": "[1]; Capecitabine cohort", "value": 7.2, "unit": "months"}, {"measurement": "AEs leading to death (excludes AEs related to metastatic breast cancer progression)", "setting": "[2]; Cape cohort", "value": 2.5, "unit": "%"}, {"measurement": "AEs leading to study drug (PL or BV) discontinuation", "setting": "[2]; female, human, in vivo", "value": 11.9, "unit": "%"}, {"measurement": "SAEs", "setting": "[2]; female, human, in vivo", "value": 18.9, "unit": "%"}, {"measurement": "Selected AEs (previously shown to be associated with bevacizumab)", "setting": "[2]; female, human, in vivo", "value": 9.0, "unit": "%"}]}, {"molecule": "BV: recombinant humanized anti-VEGF monoclonal antibody, human IgG1 framework with CDRs from murine antibody A.4.6.1", "values": [{"measurement": "mPFS, mo (median PFS)", "setting": "[1]; Anthra subgroup, BV or placebo + anthracycline-based chemotherapy", "value": 9.2, "unit": "mo"}, {"measurement": "PFS HR (95% CI)", "setting": "[1]; Anthra subgroup, BV vs PL", "value": "0.55 (0.40-0.74)"}, {"measurement": "PFS Median (months)", "setting": "[1]; [6]", "value": 8.6, "unit": "months"}, {"measurement": "Median OS (months)", "setting": "[1]; [7]", "value": 29.0, "unit": "months"}, {"measurement": "PFS HR (95% CI)", "setting": "[1]; Cap cohort, bevacizumab 15 mg/kg q3w + capecitabine vs placebo + capecitabine, investigator assessment", "value": 0.688}, {"measurement": "OS (HR, 95% CI)", "setting": "[1]; Cap cohort, bevacizumab + capecitabine vs placebo + capecitabine", "value": "0.85 (0.63-1.14)"}, {"measurement": "OS (HR, 95% CI)", "setting": "[1]; Cap cohort, bevacizumab + capecitabine vs placebo + capecitabine, listed as B", "value": 0.847}, {"measurement": "% of deaths", "setting": "[1]; Cap cohort", "value": 30, "unit": "%"}, {"measurement": "ORR (%)", "setting": "[1]; [7]", "value": "(35.4%)"}, {"measurement": "PFS", "setting": "[1]; [8]", "value": 9.7, "unit": "months"}, {"measurement": "median duration of objective response", "setting": "[1]; Capecitabine cohort", "value": 9.2, "unit": "months"}, {"measurement": "PFS Median (months)", "setting": "[1]; T/Anthra cohort, BV arm = bevacizumab + taxane/anthracycline, PL arm = placebo + taxane/anthracycline, investigator assessment", "value": 9.2, "unit": "months"}, {"measurement": "Median OS (months)", "setting": "[1]; [9]", "value": 25.2, "unit": "months"}, {"measurement": "PFS HR (95% CI)", "setting": "[1]; T/Anthra cohort, bevacizumab 15 mg/kg q3w + taxane/anthracycline vs placebo + taxane/anthracycline, investigator assessment", "value": 0.644}, {"measurement": "OS (HR, 95% CI)", "setting": "[1]; T/Anthra cohort, bevacizumab + taxane/anthracycline vs placebo + taxane/anthracycline", "value": "1.03 (0.77-1.38)"}, {"measurement": "OS (HR, 95% CI)", "setting": "[1]; T/Anthra cohort, bevacizumab + taxane/anthracycline vs placebo + taxane/anthracycline, listed as B", "value": 1.032}, {"measurement": "% of deaths", "setting": "[1]; T/Anthra cohort", "value": 34, "unit": "%"}, {"measurement": "ORR (%)", "setting": "[1]; [9]", "value": "(51.3%)"}, {"measurement": "ORR, number of patients with objective response", "setting": "[1]; [9]", "value": 177}, {"measurement": "PFS", "setting": "[1]; T/Anthra cohort, second PFS figure of b186, assessor not stated (FIG. 3 shows INV and IRC)", "value": 10.7, "unit": "months"}, {"measurement": "mPFS, mo (median PFS)", "setting": "[1]; Taxane subgroup, BV or placebo + docetaxel or Abraxane", "value": 9.2, "unit": "mo"}, {"measurement": "PFS HR (95% CI)", "setting": "[1]; Taxane subgroup, BV vs PL", "value": "0.75 (0.56-1.01)"}, {"measurement": "PFS compared to chemotherapies alone (in words)", "setting": "[1]", "value": "statistically-significant improvement in PFS"}, {"measurement": "PFS compared to chemotherapies alone (in words)", "setting": "[1]; listed as AVASTIN®", "value": "increased the time women lived without their disease advancing"}, {"measurement": "median duration of objective response", "setting": "[1]; taxane/anthracycline cohort", "value": 8.3, "unit": "months"}, {"measurement": "AEs leading to study drug (PL or BV) discontinuation", "setting": "[2]; Anthra cohort", "value": 14.3, "unit": "%"}, {"measurement": "SAEs", "setting": "[2]; Anthra cohort", "value": 22.4, "unit": "%"}, {"measurement": "AEs leading to study drug (PL or BV) discontinuation", "setting": "[2]; Cape cohort", "value": 11.9, "unit": "%"}, {"measurement": "SAEs", "setting": "[2]; Cape cohort", "value": 24.3, "unit": "%"}, {"measurement": "AEs leading to death (excludes AEs related to metastatic breast cancer progression)", "setting": "[2]; Taxane cohort", "value": 3.4, "unit": "%"}, {"measurement": "AEs leading to study drug (PL or BV) discontinuation", "setting": "[2]; Taxane cohort", "value": 24.1, "unit": "%"}, {"measurement": "SAEs", "setting": "[2]; Taxane cohort", "value": 41.4, "unit": "%"}, {"measurement": "Safety", "setting": "[2]; bevacizumab + chemotherapy, all cohorts", "value": "consistent with results of prior bevacizumab trials"}, {"measurement": "progression-free survival (PFS)", "setting": "metastatic breast cancer [3]", "value": "significantly longer"}, {"measurement": "progression-free survival (PFS)", "setting": "metastatic breast cancer [4]", "value": "longer"}, {"measurement": "PFS (primary objective)", "setting": "[5]", "value": "failed to meet its primary objective of improving PFS"}, {"measurement": "overall response rate (ORR)", "setting": "[5]", "value": "higher"}]}]}
